Measurements: patent US20260048051A1, “TREATMENT OF INFLAMMATORY BOWEL DISEASE” (Atomwise Inc., priority 2024, published 2026)

Key:
Assay type in all cases: cell-based
IL-6 induced pSTAT3 = IL-6 induced pSTAT3 assay in TF-1 cells; conditions: Homo sapiens, read-out: Cellular selectivity (IL-6/pSTAT3)
Protocol: The following example describes the IL-6 induced pSTAT3 assay used to determine the cellular selectivity (IL-6/pSTAT3) of the TYK2 inhibitors.
TF-1 (ATCC®, CRL-2003™) cells were cultured in RPMI 1640 Medium, with GlutaMAX™ Supplement, HEPES for Cell Culture (Life Technologies, 72400047), 10% Fetal Bovine Serum (Life Technologies, 26400044), 2 ng/mL human recombinant GM-CSF (Life Technologies, PHC2013), 1 mM Sodium pyruvate (Life Technologies, 11360039), 1% MEM NEAA (Life Technologies, 11140-035), 1% Penicillin/Streptomycin (Life Technologies, 15140-122).
TF-1 (70×10^6) cells were starved overnight in T150 flasks (Opti-MEM™ I Reduced Serum Medium, no phenol red (Life Technologies, 11058-021), 1 mM Na pyruvate (Life Technologies, 11360039), 1% MEM NEAA (Life Technologies, 11140-035), and 1% Penicillin/Streptomycin (Life Technologies, 15140-122)) then seeded into 96-well TPP plates (150 000 cell/well) and incubated with test compounds (Final Concentration [nM]10000-0.05) for 30 minutes at 37° C. […] Stimulation was terminated by addition of lysis buffer (MSD K150SVD) and pSTAT3 detection was measured with Phospho-STAT3 (Tyr705) Kit MSD K150SVD)) according to manufacturer's instruction. Briefly, cell lysates were added to pre-blocked plates, sealed, and shake for 1 hour at room temperature. Plates were then washed and incubated with detection antibody for 1 hour at room temperature. After washing, Read Buffer was added, and plates were read on MSD instrument (Model 1300 MSD Quickplex SQ120).

IFNα/pSTAT5 [1] = assay: Whole blood potency (IFNα/pSTAT5), human; conditions: CD4+ T cells, read-out: Cellular Whole Blood Potency IC50 (IFNα/pSTAT5), Human
Protocol: Heparinized human whole blood (5 different donors) was acquired from the Stanford Blood Center and used fresh for each experiment. Whole blood was plated (90 μl per well) into a 96-well assay plate immediately prior to initiation of the assay.
Test compounds were diluted serially (3-fold) in DMSO to generate a series of 10 concentrations (at 200× final assay concentrations). […] DMSO dilutions were diluted 10-fold in PBS to generate 20× final assay concentrations.
Pre-incubation of compounds and whole blood was initiated by adding 5 μl of the compound dilutions to the assay plates and incubated for 30 min at 37° C. Blood was then stimulated by the addition of IFN-α (5 μl of 200 ng/ml) (Miltenyi #130-093-873) followed by incubation at 37° C. for 15 min. Assays were terminated by the addition of Lyse/Fix (BD Biosciences #558049) (60 μl treated blood+1 ml Lyse/Fix) and incubated for 10 min. Cells were diluted 1:1 with Wash Buffer (PBS+0.3% BSA) and centrifuged to pellet white blood cells. Fixed cells were washed once with Wash Buffer and the pelleted cell plate was frozen at −80° C.
Cells were thawed and washed once with Wash Buffer prior to the addition of the α-CD3-Blue520 antibody (2 μg/ml final concentration; Biolegend #300481) and incubated for 30 min. Cells were washed twice in Wash Buffer followed by permeabilization in 100% cold methanol for 15 min. Cells were washed three times in Wash Buffer prior to the addition of the α-CD4-APC antibody ([…] final concentration; Biolegend #300514) and the α-pSTAT5-PE antibody (0.67 μg/ml final concentration; Biolegend #936904) and incubated for 90 min. Cells were washed twice in Wash Buffer and resuspended in 90 μl Wash Buffer prior to running on a LSRII flow cytometer (BD Biosciences, San Jose, CA). Total T cells (CD3+) and CD4+ cells were gated, and the Mean Fluorescence Intensity (MFI) was determined from the PE channel to quantify pSTAT5 signal.
The pSTAT5 MFI in the CD4+ gate was used to calculated Activity (% Control):
Data were then analyzed by non-linear regression to determine inhibitory potencies […] using the following equation in Collaborative Drug Discovery (Burlingame, CA): […]
where X: log concentration in Molar; Y: Activity (% Control); Top: curve top plateau; Bottom: curve bottom plateau, fixed range from −20-20%; Hill Slope: unconstrained. Potency data are reported as pIC50 or pIC90 values ±SD. IC90 values are defined from the fitted IC50 values: […]. FIG. 5A.
(§1) Exemplary compounds of the invention, compounds 1 and 2 were compared in this assay.

IFNα/pSTAT5 [2] = assay: Whole blood potency (IFNα/pSTAT5), mouse; conditions: read-out: Cellular Whole Blood Potency IC50 (IFNα/pSTAT5), Mouse
Source text: as §1

Structure (SMILES) | IC50 (IL-6 induced pSTAT3) [nM] | IC50 (IFNα/pSTAT5 [1]) [nM] | IC50 (IFNα/pSTAT5 [1]; Homo sapiens, CD4+ T) [nM] | IC50 (IFNα/pSTAT5 [2]) [nM]
C[C@@H](c1ccc(Nc2cc(Nc3ncc(F)cc3S(C)(=O)=O)ncn2)nc1)N1CC2(COC2)C1 [Compound 2, (S)—N^4-(5-(1-(2-oxa-6-azaspiro[3.3]heptan-6-yl)ethyl)pyridin-2-yl)-N^6-(5-fluoro-3-(methylsulfonyl)pyridin-2-yl)pyrimidine-4,6-diamine] | > 10000 | 15.8 | ~29 | 64.3
C[C@@H](c1ccc(Nc2cc(Nc3ncccc3S(C)(=O)=O)ncn2)nc1)N1CC2(COC2)C1 [Compound 1, (S)—N^4-(5-(1-(2-oxa-6-azaspiro[3.3]heptan-6-yl)ethyl)pyridin-2-yl)-N^6-(3-(methylsulfonyl)pyridin-2-yl)pyrimidine-4,6-diamine] | > 10000 | 29.1 | ~15.8 | 116
